From publication PMC12414871, “Unraveling the functional dynamics of Caenorhabditis elegans stress‐responsive omega class GST‐44” (The Febs Journal, 2025)

Molecular target: T1, GST‐44 (Caenorhabditis elegans, UniProt O45352)
T1 construct: recombinant, E. coli BL21(DE3), vector pJC40 with removable N-terminal His tag, Ni-NTA purified
Experiment: thioltransferase assay, substrate saturation curve and Lineweaver-Burk diagram
Type: biochemical
Conditions: co-substrate GSH (thioltransferase assay; reduction of spontaneously formed mixed disulfide)

T1 sequence (O45352 entry or part of it): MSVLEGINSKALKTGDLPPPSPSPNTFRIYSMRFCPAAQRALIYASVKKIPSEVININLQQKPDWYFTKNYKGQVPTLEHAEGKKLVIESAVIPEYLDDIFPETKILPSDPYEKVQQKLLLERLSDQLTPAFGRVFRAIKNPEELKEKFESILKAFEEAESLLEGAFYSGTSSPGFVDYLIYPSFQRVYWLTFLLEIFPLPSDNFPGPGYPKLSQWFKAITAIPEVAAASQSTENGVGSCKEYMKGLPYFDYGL

## OCCSSCCO [2‐hydroxyethyl disulfide]
  Km: 160 µM
